Legend:
Assay in all cases: Test D controlled growth environment herbicide test, pre- and postemergence
Assay type in all cases: in vivo
[1] = system: field violet (Viola arvensis)
Summary of the method: (§1)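 Rating is visual, 0–100 scale (100 = complete control), made against untreated plants 14–21 d after treatment in controlled growth conditions. Postemergence sprays went onto 1- to 4-leaf plants in peat medium; preemergence sprays onto silt loam after sowing; formulation included a surfactant.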

[2] = system: Russian thistle (Salsola kali)
Summary of the method: as §1

[3] = system: windgrass (Apera spica-venti)
Summary of the method: as §1

[4] = system: blackgrass (Alopecurus myosuroides)
Summary of the method: as §1

[5] = system: ryegrass, Italian (Italian ryegrass, Lolium multiflorum)
Summary of the method: as §1

[6] = system: field poppy (Papaver rhoeas)
Summary of the method: as §1

[7] = system: wheat, spring (spring wheat, Triticum aestivum)
Summary of the method: as §1

[8] = system: chickweed (common chickweed, Stellaria media)
Summary of the method: as §1

[9] = system: oilseed rape (Brassica napus)
Summary of the method: as §1

[10] = system: pigweed (Amaranthus retroflexus)
Summary of the method: as §1

[11] = system: wheat, winter (winter wheat, Triticum aestivum)
Summary of the method: as §1

[12] = system: deadnettle (henbit deadnettle, Lamium amplexicaule)
Summary of the method: as §1

[13] = system: radish, wild (wild radish, Raphanus raphanistrum)
Summary of the method: as §1

[14] = Postemergence, 31 g ai/ha, scale 0 to 100 (0 no effect, 100 complete control)
[15] = Postemergence, 125 g ai/ha, visual rating on scale 0 (no effect) to 100 (complete control), 14 to 21 d
[16] = Postemergence, 250 g ai/ha, scale 0 to 100 (0 no effect, 100 complete control)
[17] = Preemergence, 125 g ai/ha, scale 0 to 100 (0 no effect, 100 complete control)
[18] = Preemergence, 250 g ai/ha, scale 0 to 100 (0 no effect, 100 complete control)
[19] = postemergence, 62 g ai/ha, scale 0 to 100, 0 no effect, 100 complete control

Compound: CCOC(=O)Oc1c(C)nn(C)c(=O)c1-c1c(C)sc2c(C)cc(C)cc12 [Compound 83]
- Field Violet plant response rating [1, 14]: 90
- Plant response rating, Field Violet [1, 15]: 100
- Plant response rating, Field Violet [1, 16]: 100
- Plant response rating (scale of 0 to 100), Field Violet ([1]; Preemergence, 31 g ai/ha): 75
- Plant response rating (scale of 0 to 100), Field Violet ([1]; Preemergence, 62 g ai/ha): 80
- Plant response rating, Field Violet [1, 17]: 95
- Plant response rating, Field Violet [1, 18]: 100
- Plant response rating, Field Violet [1, 19]: 80
- Russian Thistle plant response rating [2, 14]: 75
- Plant response rating, Russian Thistle [2, 15]: 80
- Plant response rating, Russian Thistle [2, 16]: 85
- Plant response rating (scale of 0 to 100), Russian Thistle ([2]; Preemergence, 31 g ai/ha): 0
- Plant response rating (scale of 0 to 100), Russian Thistle ([2]; Preemergence, 62 g ai/ha): 0
- Plant response rating, Russian Thistle [2, 17]: 15
- Plant response rating, Russian Thistle [2, 18]: 0
- Plant response rating, Russian Thistle [2, 19]: 80
- Windgrass plant response rating [3, 14]: 75
- Plant response rating, Windgrass [3, 15]: 90
- Plant response rating, Windgrass [3, 16]: 95
- Plant response rating (scale of 0 to 100), Windgrass ([3]; Preemergence, 31 g ai/ha): 15
- Plant response rating (scale of 0 to 100), Windgrass ([3]; Preemergence, 62 g ai/ha): 75
- Plant response rating, Windgrass [3, 17]: 90
- Plant response rating, Windgrass [3, 18]: 95
- Plant response rating, Windgrass [3, 19]: 85
- Blackgrass plant response rating [4, 14]: 65
- Plant response rating, Blackgrass [4, 15]: 75
- Plant response rating, Blackgrass [4, 16]: 80
- Plant response rating (scale of 0 to 100), Blackgrass ([4]; Preemergence, 31 g ai/ha): 20
- Plant response rating, Blackgrass ([4]; Preemergence, 62 g ai/ha, scale 0 to 100 (0 no effect, 100 complete control)): 60
- Plant response rating, Blackgrass [4, 17]: 70
- Plant response rating, Blackgrass [4, 18]: 85
- Plant response rating, Blackgrass [4, 19]: 70
- Ryegrass, Italian plant response rating [5, 14]: 80
- Plant response rating, Ryegrass, Italian [5, 15]: 90
- Plant response rating, Ryegrass, Italian [5, 16]: 90
- Plant response rating (scale of 0 to 100), Ryegrass, Italian ([5]; Preemergence, 31 g ai/ha): 40
- Plant response rating (scale of 0 to 100), Ryegrass, Italian ([5]; Preemergence, 62 g ai/ha): 75
- Plant response rating, Ryegrass, Italian [5, 17]: 90
- Plant response rating, Ryegrass, Italian [5, 18]: 100
- Plant response rating, Ryegrass, Italian [5, 19]: 85
- Field Poppy plant response rating [6, 14]: 100
- Plant response rating, Field Poppy [6, 15]: 100
- Plant response rating, Field Poppy [6, 16]: 100
- Plant response rating (scale of 0 to 100), Field Poppy ([6]; Preemergence, 31 g ai/ha): 100
- Plant response rating (scale of 0 to 100), Field Poppy ([6]; Preemergence, 62 g ai/ha): 100
- Plant response rating, Field Poppy [6, 17]: 100
- Plant response rating, Field Poppy [6, 18]: 100
- Plant response rating, Field Poppy [6, 19]: 100
- Wheat, Spring plant response rating [7, 14]: 0
- Plant response rating, Wheat, Spring [7, 15]: 5
- Plant response rating, Wheat, Spring [7, 16]: 20
- Plant response rating (scale of 0 to 100), Wheat, Spring ([7]; Preemergence, 31 g ai/ha): 0
- Plant response rating (scale of 0 to 100), Wheat, Spring ([7]; Preemergence, 62 g ai/ha): 0
- Plant response rating, Wheat, Spring [7, 17]: 10
- Plant response rating, Wheat, Spring [7, 18]: 35
- Plant response rating, Wheat, Spring [7, 19]: 0
- Chickweed plant response rating [8, 14]: 100
- Plant response rating, Chickweed [8, 15]: 100
- Plant response rating, Chickweed [8, 16]: 100
- Plant response rating (scale of 0 to 100), Chickweed ([8]; Preemergence, 31 g ai/ha): 100
- Plant response rating (scale of 0 to 100), Chickweed ([8]; Preemergence, 62 g ai/ha): 100
- Plant response rating, Chickweed [8, 17]: 100
- Plant response rating, Chickweed [8, 18]: 100
- Plant response rating, Chickweed [8, 19]: 100
- Oilseed Rape plant response rating [9, 14]: 65
- Plant response rating, Oilseed Rape [9, 15]: 75
- Plant response rating, Oilseed Rape [9, 16]: 95
- Plant response rating (scale of 0 to 100), Oilseed Rape ([9]; Preemergence, 31 g ai/ha): 5
- Plant response rating (scale of 0 to 100), Oilseed Rape ([9]; Preemergence, 62 g ai/ha): 5
- Plant response rating, Oilseed Rape [9, 17]: 10
- Plant response rating, Oilseed Rape [9, 18]: 10
- Plant response rating, Oilseed Rape [9, 19]: 70
- Pigweed plant response rating [10, 14]: 100
- Plant response rating, Pigweed [10, 15]: 100
- Plant response rating, Pigweed [10, 16]: 100
- Plant response rating (scale of 0 to 100), Pigweed ([10]; Preemergence, 31 g ai/ha): 100
- Plant response rating (scale of 0 to 100), Pigweed ([10]; Preemergence, 62 g ai/ha): 100
- Plant response rating, Pigweed [10, 17]: 100
- Plant response rating, Pigweed [10, 18]: 100
- Plant response rating, Pigweed [10, 19]: 100
- Wheat, Winter plant response rating [11, 14]: 0
- Plant response rating, Wheat, Winter [11, 15]: 5
- Plant response rating, Wheat, Winter [11, 16]: 10
- Plant response rating (scale of 0 to 100), Wheat, Winter ([11]; Preemergence, 31 g ai/ha): 0
- Plant response rating (scale of 0 to 100), Wheat, Winter ([11]; Preemergence, 62 g ai/ha): 0
- Plant response rating, Wheat, Winter [11, 17]: 5
- Plant response rating, Wheat, Winter [11, 18]: 25
- Plant response rating, Wheat, Winter [11, 19]: 0
- Deadnettle plant response rating [12, 14]: 15
- Plant response rating, Deadnettle [12, 15]: 55
- Plant response rating, Deadnettle [12, 16]: 60
- Plant response rating (scale of 0 to 100), Deadnettle ([12]; Preemergence, 31 g ai/ha): 0
- Plant response rating (scale of 0 to 100), Deadnettle ([12]; Preemergence, 62 g ai/ha): 0
- Plant response rating, Deadnettle [12, 17]: 15
- Plant response rating, Deadnettle [12, 18]: 100
- Plant response rating, Deadnettle [12, 19]: 25
- Radish, Wild plant response rating [13, 14]: 75
- Plant response rating, Radish, Wild [13, 15]: 100
- Plant response rating, Radish, Wild [13, 16]: 100
- Plant response rating (scale of 0 to 100), Radish, Wild ([13]; Preemergence, 31 g ai/ha): 30
- Plant response rating (scale of 0 to 100), Radish, Wild ([13]; Preemergence, 62 g ai/ha): 70
- Plant response rating, Radish, Wild [13, 17]: 90
- Plant response rating, Radish, Wild [13, 18]: 90
- Plant response rating, Radish, Wild [13, 19]: 90

Reference: patent publication US10597388B2, “Pyridazinone herbicides” (FMC CORPORATION, priority 2014, dated 2020)
